Data on three compounds can be found in patent US5955092A, “Skin care compositions containing an n-substituted fatty acid amide and retinol or retinyl ester” (Elizabeth Arden Co., Division of Conopco, Inc., priority 1996, dated 1999).

Molecules are shown by their SMILES. Like-named read-outs stand apart in the source and are kept apart here.

For assay [1], the target named is T1, LRAT (Bos taurus, UniProt Q9BGL2).
T1 construct: microsomal fraction isolated from bovine retinal pigment epithelial cells; from tissue; host or cells: microsomes of bovine retinal pigment epithelial cells
T1 sequence (Q9BGL2 1-230): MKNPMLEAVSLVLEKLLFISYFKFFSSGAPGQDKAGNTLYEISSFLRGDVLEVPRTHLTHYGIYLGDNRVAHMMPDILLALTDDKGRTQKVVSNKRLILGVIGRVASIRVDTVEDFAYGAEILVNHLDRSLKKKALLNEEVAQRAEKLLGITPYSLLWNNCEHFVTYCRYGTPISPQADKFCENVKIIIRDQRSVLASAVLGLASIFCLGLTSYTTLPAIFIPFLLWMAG
As to the kind of experiment: In vitro Microsomal Esterification of Retinol, LRAT catalyzed. Type of assay: biochemical, bovine. To be noted: 1 hour at 37° C., pH 7. The method, then:
(§1) Microsomes are obtained as described in: J. C. Saari and D. L. Bredberg, "CoA and Non-CoA Dependent Retinol Esterification in Retinal Figment Epithelium" J. Biol. Chem. 263, 8084-90 (1988).
(§2) A solution containing 0.1M sodium phosphate pH 7 buffer, 5 mM dithiothreitol, 2 mg/ml bovine serum albumin, 40 micromolar palmitoyl CoA, 40 micromolar dilauroyl phosphatidyl choline, 10 micromolar retinol and a test compound or a solvent blank, is incubated for 1 hour at 37° C. with a microsomal fraction isolated from bovine retinal pigment epithelial cells. After incubation, the reaction was quenched by addition of an equal volume of ethanol, and the retinyl esters formed (retinyl laurate from the LRAT catalyzed reaction and retinyl palmitate from ARAT catalyzed reaction) are extracted with hexane. The hexane layer is removed, evaporated under nitrogen, and the residue analyzed by HPLC on a 3.9×300 mm C18 reversed phase column using a 80% methanol in tetrahydrofuran mobile phase and fluorescence detection (325 nm excitation, 480 nm emission) to quantitate the retinyl ester. The quantity of ester formed in the presence of the solvent blank is taken as 100%, and this is used to calculate the percent inhibition of ester formation for the compounds tested. As a control, an aliquot of microsomes is inactivated by boiling for 5 minutes, which results in at least 95% inhibition of ester formation. […]

The test system of assay [2] is ARAT. As to the kind of experiment: In vitro Microsomal Esterification of Retinol, ARAT catalyzed. The assay is classed as biochemical, bovine. As to conditions: 100 μM; 1 hour at 37° C.; pH 7. How it is done:
as §1, §2

Assay [3] has as its system Human keratinocytes (TGase I). As to the kind of experiment: Transglutaminase (TGase I) ELISA in cultured keratinocytes, normalized to DNA (Example 3). To be noted: for mean TGase/DNA × 10^5 ± s.d: Control 57.80 ± 8.61; for activity at 0.25 µM: Homo sapiens, Keratinocyte, read-out: mean TGase/DNA (% control). The assay is classed as cell-based. How it is done:
Human keratinocytes, isolated from neonatal foreskin by trypsin treatment were grown in Dulbecco Modification Eagle (DME) Hams F12 (1:1) medium/10% fetal calf serum in the presence of irradiated 3T3 mouse fibroblasts for establishing dividing keratinocyte colonies. Cells were grown under the above condition until their second passage and kept frozen for future use. […] On day 7, when the cells were 80-90% confluent, they were trypsinized and plated in the serum-free medium for the various experiments.
(§3) During the process of terminal differentiation in the epidermis, a 15 nm thick layer of protein, known as the cornified envelope (CE) is formed on the inner surface of the cell periphery. The CE is composed of numerous distinct proteins which have been cross-linked together by the formation of N^ε -(γ-glutamyl) lysine isodipeptide bonds catalyzed by the action of at least two different transglutaminases (TGases) expressed in the epidermis. TGase I is expressed in abundance in the differentiated layers of the epidermis, especially the granular layer, but is absent in the undifferentiated basal epidermis. Thus TGase I is a useful marker of epidermal keratinocyte differentiation with high TGase I levels indicating a more differentiated state. An ELISA based TGase I assay, using a TGase I antibody, was used to assess the state of differentiation of the cultured keratinocytes in the examples that follow.
Keratinocytes (cultured as described above) were plated in 96 well plates at a density of 3,000 cells per well in 200 μl of cell culture media. After incubation for four days, the media was changed to media containing test compounds (six replicates per test). The cells were cultured for a further 72 hours after which time the media was aspirated and the plates stored at -70° C. After the plates were removed from the freezer, the cells were further freezed fractured by freezing and thawing and then washed 3× with PBS. The cells were incubated for one hour at room temperature (R/T) with TBS/5% BSA buffer. Cells were then incubated with 100 μl of monoclonal anti-human transglutaminase (IgG) mouse antibody (primary antibody) obtained from Biomedical Technologies Inc. diluted 1:2000 in TBS/1% BSA buffer for two hours at 37° C., and then rinsed six times with wash buffer (TBS/1% BSA/0.05% Tween-20). Cells were next incubated with 100 μl of Fab fragment, peroxidase conjugated anti-mouse IgG antibody (secondary antibody) from Amersham diluted 1:4,000 in wash buffer for two hours at 37° C. and then rinsed three times with wash buffer and three times with PBS. Cells were incubated with substrate solution (4 mg o-phenylene diamine and 3.3 μl 30% H2 O2 in 10 mL 0.1M citrate buffer, pH 5.0) for five minutes at R/T and in darkness (under aluminum foil). […] The absorbance of samples was read at 492 nm in the plate reader. […] Transglutaminase I levels were determined by subtracted background from the readings from each treatment and determining the mean s.d. for the replicates exposed to both antibodies.
The level of TGase-1 was normalized to DNA content of the cells in the same well thus eliminating variation due to differences in cell number. DNA quantitation is a particularly useful indicator of cell number, including keratinocyte cell number, because each cell has to all intents and purposes an identical genome and therefore an identical quantity of DNA. […] Quantitation of DNA was used to normalize the TGase data to cell number. […]
(ELISA stands for enzyme-linked immunosorbent assay.)

For assay [4], the system named is Human keratinocytes (TGase I). As to the kind of experiment: Transglutaminase (TGase I) ELISA in cultured keratinocytes, normalized to DNA (Example 1). The assay is classed as cell-based. To be noted: for dose dependence of decrease in transglutaminase level: 2.5×10^-7 M to 2.5×10^-9 M; for mean TGase/DNA × 10^-4 ± s.d: 72 hours, n = 3, Control 2.44 ± 0.24. The method, then: Human keratinocytes, isolated from neonatal foreskin by trypsin treatment were grown in Dulbecco Modification Eagle (DME) Hams F12 (1:1) medium/10% fetal calf serum in the presence of irradiated 3T3 mouse fibroblasts for establishing dividing keratinocyte colonies. Cells were grown under the above condition until their second passage and kept frozen for future use. Frozen second passage keratinocytes were thawed and plated into the above medium and grown for five days before they were switched to a serum-free MCDB 153-based medium keratinocyte growth medium (KGM) from Clonetics Corporation, San Diego, Calif., containing 0.15 mM Ca, or keratinocyte serum-free media (KSFM) from GIBCO containing 0.09 mM Ca). On day 7, when the cells were 80-90% confluent, they were trypsinized and plated in the serum-free medium for the various experiments.
as §3
For Example 1, the following procedure was used:
Keratinocytes (cultured as described above) were plated in 96 well plates at a density of 3,000 cells per well in 200 μl media. After incubation for four days the media was changed to media containing test compounds (six replicates per test). The cells were cultured for a further 72 hours after which time the media was aspirated and the plates stored at -70° C. Plates were removed from the freezer, and the cells washed with PBS. 100 μl sterile water was added and the cells were freeze fractured by freezing at -70° C. then thawing. The cells were incubated for one hour at room temperature (R/T) with PBS/3% BSA (wash buffer, bovine serum albumin), then rinsed with a fresh aliquot of wash buffer. Cells were incubated with 50 μl of primary antibodies monoclonal anti-human transglutaminase mouse antibody (IgG) obtained from Biomedical Industries diluted 1:2,000 in wash buffer for one hour, 37° C. then rinsed two times with wash buffer. Cells were then incubated with 50 μl of secondary antibody (Fab fragment, peroxidase conjugated anti-mouse IgG obtaining from Amersham) diluted 1:4,000 in wash buffer for one hour at 37° C., then rinsed two times with wash buffer. Cells were incubated with substrate solution (4 mg o-phenylene diamine and 3.3 μl 30% H2 O2 in 10 ml 0.1 M citrate buffer pH 5.0) for five minutes, R/T, in darkness (under aluminum foil). The reaction was stopped by the addition of 50 μl 4N H2 SO4. The absorbance of samples was read at 492 nm in the plate reader. Out of the six replicates, four were treated with both antibodies, two were treated only with the secondary antibody (i.e., to determine background binding of enzyme conjugated Ab). TGase levels were determined by subtracting background from the readings from each treatment and determining mean±s.d. for the replicates exposed to both Ab.
The level of TGase-1 detected after treatment of the cells could be influenced by cell number, i.e., the greater the number of cells the greater the level of TGase-1 detected. The level of TGase-1 was normalized to DNA content of the cells in the same well thus eliminating variation due to differences in cell number. […]

For `CCCCCCCC(=O)NC(COC)COC` [Formula C], in assay [1], the inhibition (in general, the percentage by which the read-out fell short of the control) at 100 µM is 0%. For the same compound, the “% INHIBITION, ARAT” value in assay [2] was determined as 0%.

`CC1=C(/C=C/C(C)=C/C=C/C(C)=C/C(=O)O)C(C)(C)CCC1` [Retinoic acid]: the “mean TGase/DNA × 10^5 ± s.d” value in assay [3] (2.5 × 10^-7 M, 72 hours, n = 3) is given as 39.99 ± 5.28 × 10^5. Also, the activity at 0.25 µM in assay [3] (72 h) amounted to 69%. Besides, the “dose dependence of decrease in transglutaminase level” value in assay [4] is “dose dependent”. Further, the “decrease of keratinocyte differentiation compared with corresponding retinol treatments” value in assay [4] (2.5×10^-7 M, 2.5×10^-8 M and 2.5×10^-9 M, vs retinol at same concentration) is “significantly greater extent”. Also, the “effect on keratinocyte differentiation vs ethanol control” value in assay [4] (all concentrations tested: 2.5×10^-7 M, 2.5×10^-8 M and 2.5×10^-9 M) is “decreased keratinocyte differentiation”.

For `CC1=C(/C=C/C(C)=C/C=C/C(C)=C/CO)C(C)(C)CCC1` [Retinol], the “inhibition of keratinocyte TG1 level when used alone (in words)” value in assay [3] (2.5×10^-7 M retinol, 10^-4 M Formula A, used alone, compared with 2.5×10^-7 M retinoic acid) is on record as “less effective”. Besides, the “mean TGase/DNA × 10^5 ± s.d” value in assay [3] (2.5 × 10^-7 M, 72 hours, n = 3) was 45.60 ± 3.92 × 10^5. For the same compound, in assay [3] (2.5 × 10^-7 M, 72 hours, n = 3), the activity at 0.25 µM was found to be 79%. Moreover, the “dose dependence of decrease in transglutaminase level” value in assay [4] is listed as “dose dependent”. The “mean TGase/DNA × 10^-4 ± s.d” value in assay [4] (2.5 × 10^-7 M) is 1.14 ± 0.22 × 10^-4; in assay [4] (2.5 × 10^-8 M), 1.89 ± 0.30 × 10^-4; in assay [4] (2.5 × 10^-9 M) it was 2.70 ± 0.59 × 10^-4.
